Measured values published in US4348410A, “Cyclohexane carboxylic acid derivatives” (Nippon Chemiphar Co., Ltd., priority 1979, dated 1982).

How the values were obtained:
acetic acid ulcers = assay: Acetic acid ulcers; assay type: in vivo, Male Sprague-Dawley strain rats; conditions: for Ulcer Grade 1 (number of rats): ulcer area 0-10 mm^2; for Ulcer Grade 2 (number of rats): ulcer area 11-20 mm^2; for Ulcer Grade 3 (number of rats): ulcer area 21-30 mm^2; for Ulcer Grade 4 (number of rats): ulcer area 31-40 mm^2; for Ulcer Grade 5 (number of rats): ulcer area >40 mm^2
Protocol: Male Sprague-Dawley strain rats, weighing about 200 g were used. Under ether anesthesia 10% acetic acid solution (0.05 ml) was injected carefully between the serous membrane and the muscle near the pylorus, and the abdomen was closed. Thereafter, the animals were maintained under conditions and administered 1 ml/100 g of each test drug dissolved or suspended in 0.5% carboxymethylcellulose solution p.o. daily×10 starting from the next day of the operation. On the 11th day, the rats were sacrificed under ether anesthesia, and the stomachs were removed. The area of the ulcer was measured and graded into 5 degrees as an ulcer index according to the following method: […]

[1] = tested on: cysteamine-induced duodenal ulcers; assay: Duodenal ulcers (cysteamine-induced); assay type: in vivo, Female Sprague-Dawley strain rats
Protocol: Female Sprague-Dawley strain rats, weighing about 200 g were deprived of food for 24 hours prior to experiment. Cysteamine 400 mg/kg was given subcutaneously once to the rats. The animals were provided food and libitum from the 7 hours later. The test drug was given orally as aqueous suspension after 7 hours, the administration of cysteamine, then daily×4. On the next morning of the last administration, the animals were sacrificed under ether anesthesia. The ulcer area (mm^2) was measured and described as ulcer index.

N=C(N)NC[C@H]1CC[C@H](C(=O)Oc2ccccc2C(=O)OCc2ccccc2)CC1 [Compound 1]
Ulcer Grade 1 (number of rats) (acetic acid ulcers; 125 mg/kg p.o. daily×10): 15
Ulcer Grade 2 (number of rats) (acetic acid ulcers; 125 mg/kg p.o. daily×10): 1
Ulcer Grade 3 (number of rats) (acetic acid ulcers; 125 mg/kg p.o. daily×10): 2
Ulcer Grade 4 (number of rats) (acetic acid ulcers; 125 mg/kg p.o. daily×10): 0
Ulcer Grade 5 (number of rats) (acetic acid ulcers; 125 mg/kg p.o. daily×10): 0
Ulcer Grade 1 (number of rats) (acetic acid ulcers; 250 mg/kg p.o. daily×10): 14
Ulcer Grade 2 (number of rats) (acetic acid ulcers; 250 mg/kg p.o. daily×10): 1
Ulcer Grade 3 (number of rats) (acetic acid ulcers; 250 mg/kg p.o. daily×10): 1
Ulcer Grade 4 (number of rats) (acetic acid ulcers; 250 mg/kg p.o. daily×10): 0
Ulcer Grade 5 (number of rats) (acetic acid ulcers; 250 mg/kg p.o. daily×10): 0
Ulcer Grade 1 (number of rats) (acetic acid ulcers; 500 mg/kg p.o. daily×10): 16
Ulcer Grade 2 (number of rats) (acetic acid ulcers; 500 mg/kg p.o. daily×10): 2
Ulcer Grade 3 (number of rats) (acetic acid ulcers; 500 mg/kg p.o. daily×10): 0
Ulcer Grade 4 (number of rats) (acetic acid ulcers; 500 mg/kg p.o. daily×10): 0
Ulcer Grade 5 (number of rats) (acetic acid ulcers; 500 mg/kg p.o. daily×10): 0
Inhibition (%) ([1]; 250 mg/kg orally): 72.1%
Ulcer Index (mm^2) ([1]; 250 mg/kg orally): 22.5 ± 3.9 mm^2
Inhibition (%) ([1]; 500 mg/kg orally): 85.5%
Ulcer Index (mm^2) ([1]; 500 mg/kg orally): 11.7 ± 3.6 mm^2
